The test system of data set [1] is MCF-7 (human mammary adenocarcinoma) cell line. Nature of the data set: sulforhodamine B (SRB) cytotoxicity assay on MCF-7. In kind it is cell-based. The conditions noted are these: mean ± SE of three or four assays, incubation 72 h, 48 h exposure. As to the method: (§1) The compounds were screened in vitro against two cancer cell lines, MCF-7 and MDA-MB-231 (human mammary adenocarcinoma), and the normal cell line Cos-7 (African green monkey kidney fibroblast). The MCF-7 and MDA-MB231 cell lines were cultured in RPMI-1640 medium, and Cos-7 was cultured in DMEM (Dulbecco's Modified Eagle's Medium) and supplemented with 10% of fetal bovine serum, 2 mM L-glutamine, 10000 units/ml penicillin G sodium, 10000 μg/ml streptomycin sulfate, 25 μg amphotericin B (Gibco), and 1% of nonessential amino acids (Gibco). The cell lines were maintained at 37°C in a humidified atmosphere with 5% CO2. The viability of the cells used in the experiments exceeded 95%, as determined with trypan blue.
(§2) The human tumor cytotoxicity was assessed using the protein-binding dye sulforhodamine B (SRB) in a microculture assay to measure the cell growth as described by. The human tumors and normal cells were treated with the complexes. The cells were removed from the tissue culture flask by treatment with trypsin and diluted with fresh media from the cell suspension to 100 μl containing 5000–10000 cells per well. The cells were then pipetted into 96 microliter plates (Costar) and incubated at 37°C for 24 h in a 5% CO2 atmosphere. Subsequently, 100 μl of a solution of the corresponding organotin complex at different concentrations was added to each well. […] After the incubation period, the cells were fixed to the plastic substratum by the addition of 50 μl of cold trichloroacetic acid (50% aqueous).
(§3) The plates were incubated at 4°C for one hour, washed with tap water, and air-dried. The addition of […] stained trichloroacetic acid-fixed cells. The free SRB was removed by washing with 1% aqueous acetic acid, the plates were air-dried, and the dyed was solubilized by adding ten mM unbuffered Tris base (100 μl). The plates were placed on a shaker for 10 min, and the absorption was measured at 515 nm using an ELISA plate reader (Bio-Tex Instruments).
(In SRB staining, fixed cells bind dye roughly in proportion to their protein.)

Data set [2] relates to COS-7 (African green monkey kidney fibroblast) normal cell line. Nature of the data set: sulforhodamine B (SRB) cytotoxicity assay on normal cell line COS-7. In kind it is cell-based. The conditions noted are these: for Non-Cytotoxic concentration on normal cell line COS-7: nondetectable effect on cell proliferation; for IC50: normal cell line, SRB assay, mean ± SE of three or four assays. How it is done: as §1
The human tumor cytotoxicity was assessed using the protein-binding dye sulforhodamine B (SRB) in a microculture assay to measure the cell growth as described by. The human tumors and normal cells were treated with the complexes. The cells were removed from the tissue culture flask by treatment with trypsin and diluted with fresh media from the cell suspension to 100 μl containing 5000–10000 cells per well. The cells were then pipetted into 96 microliter plates (Costar) and incubated at 37°C for 24 h in a 5% CO2 atmosphere. Subsequently, 100 μl of a solution of the corresponding organotin complex at different concentrations was added to each well. The cultures were exposed to the compounds for 48 h. After the incubation period, the cells were fixed to the plastic substratum by the addition of 50 μl of cold trichloroacetic acid (50% aqueous).
as §3

Data set [3] concerns MDA-MB-231 (human mammary adenocarcinoma) cell line. Nature of the data set: sulforhodamine B (SRB) cytotoxicity assay on MDA-MB-231. Format: cell-based. The conditions noted are these: mean ± SE of three or four assays, incubation 72 h, 48 h exposure. As to the method: as §1, §2, §3
Data set [4] in a line: stability in DMSO-d6 by 1H NMR. In kind it is physicochemical. Particulars: DMSO-d6 solution, up to 72 h. How it is done: The stability of the complexes in biological media was tested to evaluate their cytotoxicity. The compounds were dissolved in a DMSO-Tris-HCl buffer (3 : 7 v/v) over a 72 h period, and the UV-Vis spectra were recorded at 0 and 72 h. ^1H NMR spectra in DMSO-d6 of complexes 1a, 1d, 2a, 2d, 3a, and 3d were also acquired at 0, 24, 56, and 72 h.

For `CCCCCCC[CH2][Sn]1([CH2]CCCCCCC)[O]c2cc(C)oc(=O)c2C(C)=NN=C(N)[S]1` [Compound 1b, 4-Amino-2,2-dioctyl-7,10-dimethylpyrane-[3,4-h]-1,3,5,6,2-oxathiadiazastannonin-8-one], the IC50 was determined as 8.65 ± 0.7 µM in data set [1], 12.2 ± 0.3 µM in data set [2] and 11.1 ± 1.5 µM in data set [3]. The “Non-Cytotoxic concentration on normal cell line COS-7” value (“Non-Cytotoxic concentration” below) in data set [2] amounted to 0.2 µM.

`CC1=NN=C(CN)[S][Sn]([c]2ccccc2)([c]2ccccc2)[O]c2cc(C)oc(=O)c21` [Compound 2c, 2,2-Diphenyl-7,10-dimethyl-4-(aminomethyl) Pyrane[3,4-h]-1,3,5,6,2-oxathiadiazastannonin-8-one]: the values for the IC50 in data set [1], in data set [2] and in data set [3] were 1.08 ± 0.01 µM, 1.15 ± 0.1 µM and 1.02 ± 0.03 µM, respectively. Moreover, the “Non-Cytotoxic concentration” value in data set [2] is 0.02 µM.

Turning to `CC1=NN=C(N)[S][Sn]([CH2][Si](C)(C)C)([CH2][Si](C)(C)C)[O]c2cc(C)oc(=O)c21` [Compound 1e, 4-Amino-2,2-bis(trimethylsilyl)methyl-7,10-dimethylpyrane[3,4-h]-1,3,5,6,2-oxathiadiazastannonin-8-one], the results for the IC50 in data set [1], in data set [2] and in data set [3] were 0.18 ± 0.005 µM, 0.14 ± 0.01 µM and 0.042 ± 0.008 µM, respectively. Moreover, the “Non-Cytotoxic concentration” value in data set [2] amounted to 0.01 µM.

Regarding `CCCCCCC[CH2][Sn]1([CH2]CCCCCCC)[O]c2cc(C)oc(=O)c2C(C)=NN=C(Nc2ccccc2)[S]1` [Compound 3b, 2,2-Dioctyl-7,10-dimethyl-4-(aminophenyl) Pyrane[3,4-h]-1,3,5,6,2-oxathiadiazastannonin-8-one], the IC50 in data set [1] was 0.73 ± 0.1 µM; in data set [2] it was 1.6 ± 0.2 µM; in data set [3], 0.54 ± 0.08 µM. In addition, the “Non-Cytotoxic concentration” value in data set [2] was 0.01 µM.

As for `N.N.[Cl][Pt][Cl]` [Cisplatin, reference compound], the IC50 is 5.3 ± 0.5 µM in data set [1], 7.17 ± 0.6 µM in data set [2] and 27.7 µM in data set [3].

In the case of `CC1=NN=C(N)[S][Sn]([CH]2CCCCC2)([CH]2CCCCC2)[O]c2cc(C)oc(=O)c21` [Compound 1d, 4-Amino-2,2-dicyclohexyl-7,10-dimethylpyrane[3,4-h]-1,3,5,6,2-oxathiadiazastannonin-8-one], the “stability by 1H NMR” value in data set [4] is given as “good stability”. The IC50 worked out at 0.203 ± 0.008 µM in data set [1], 0.18 ± 0.006 µM in data set [2] and 0.119 ± 0.003 µM in data set [3]. In data set [2], the “Non-Cytotoxic concentration” value worked out at 0.01 µM.

Regarding `CC1=NN=C(Nc2ccccc2)[S][Sn]([c]2ccccc2)([c]2ccccc2)[O]c2cc(C)oc(=O)c21` [Compound 3c, 2,2-Diphenyl-7,10-dimethyl-4-(aminophenyl) Pyrane[3,4-h]-1,3,5,6,2-oxathiadiazastannonin-8-one], the values for the half-maximal inhibitory concentration (IC50) in data set [1], in data set [2] and in data set [3] were 0.16 ± 0.01 µM, 0.25 ± 0.006 µM and 0.49 ± 0.002 µM, respectively. In data set [2], the “Non-Cytotoxic concentration” value was 0.01 µM.

For the compound `CCC[CH2][Sn]1([CH2]CCC)[O]c2cc(C)oc(=O)c2C(C)=NN=C(Nc2ccccc2)[S]1` [Compound 3a, 2,2-Dibutyl-7,10-dimethyl-4-(aminophenyl) Pyrane[3,4-h]-1,3,5,6,2-oxathiadiazastannonin-8-one], the “stability by 1H NMR” value in data set [4] is “good stability”. The results for the IC50 in data set [1], in data set [2] and in data set [3] were 0.21 ± 0.009 µM, 0.34 ± 0.01 µM and 0.1 ± 0.01 µM, respectively. Besides, the “Non-Cytotoxic concentration” value in data set [2] was found to be 0.02 µM.

On to `CCC[CH2][Sn]1([CH2]CCC)[O]c2cc(C)oc(=O)c2C(C)=NN=C(CN)[S]1` [Compound 2a, 2,2-Dibutyl-7,10-dimethyl-4-(aminomethyl) Pyrane[3,4-h]-1,3,5,6,2-oxathiadiazastannonin-8-one], for which the “stability by 1H NMR” value in data set [4] is given as “good stability”. The figures for the IC50 in data set [1], in data set [2] and in data set [3] were 0.21 ± 0.04 µM, 0.62 ± 0.06 µM and 0.31 ± 0.02 µM, respectively. The “Non-Cytotoxic concentration” value in data set [2] is recorded as 0.01 µM.

One may read the IC50 as the concentration needed to halve the response being measured.

These data come from PMC10620030, “New Organotin (IV) Compounds Derived from Dehydroacetic Acid and Thiosemicarbazides: Synthesis, Rational Design, Cytotoxic Evaluation, and Molecular Docking Simulation” (Bioinorganic Chemistry and Applications, 2023).
